Patent publication US12030896B2, “PIKfyve inhibitors” (Mayo Foundation for Medical Education and Research, priority 2018, dated 2024)

Experiments:
[1] = system: Human Glioblastoma multiforme cells (T98G, G22VF, U251) and human medulloblastoma cells (p16, p9); test: Cell viability by cell titer-Glo luminescence (ATP level) assay; type: cell-based; conditions: 72 hours, various concentrations
Method: Human Glioblastoma multiforme cells (T98G, G22VF, U251) and human medulloblastoma cells (p16, p9) were incubated with various concentrations of Example 1 for 72 hours, and then cell viability assessed by cell titer-Glo luminescence (ATP level) assay.
Methods: Example 1 was dissolved into DMSO (ATCC) at a concentration of 40 mM, this stock was further diluted to 2× the highest final working concentration into complete medium consisting of DMEM (Life Technologies), penicillin/streptomycin antibiotic solution (Life Technologies), and 10% FBS (Seradigm). This stock was dispensed into the final column of a white-walled, flat-bottomed 96-well plate (Corning). Serial dilutions (1.5× or 2× depending on the assay) were then made using complete medium down to the lowest assayed concentration of Example 1. The final column of the 96-well plate was saved as a vehicle-only control and included DMSO diluted 1:250 in complete medium. […]
These plates were placed in a 5% CO2, 37° C. incubator. After 72 hrs of incubation, relative ATP content was measured as an indirect indication of the number of viable cells per well. […] This reaction was protected from light and incubated for 10 min at room temperature, then total luminescence was read using a Synergy H1 microplate reader (Biotek).
Raw luminescence numbers or relative ATP concentration (reported as a percentage of the vehicle-treated control) are show. […]

[2] = system: Human osteosarcoma cells (U2OS, 143B, MG63, and SAOS2) and human pancreatic cancer cells (Panc-1, CFPAC); test: Killing of osteosarcoma and pancreatic cell lines (Alamar Blue); type: cell-based; conditions: 72 hrs
Method: Human osteosarcoma cells (U2OS, 143B, MG63, and SAOS2) and human pancreatic cancer cells (Panc-1, CFPAC) were similarly tested for killing by the compound, as shown in FIG. 5. All experiments in FIG. 5 were performed using DMEM:F12 media (Life Technologies) as the base formulation for “complete” media for experiments with 143B and MG63 cells. Also, Alamar Blue was used to assay the relative number of viable cells per well after 72 hrs of growth. For these assays, growth media was removed from the cells, and replaced with fresh (“complete) media containing Alamar Blue reagent (Life Technologies) diluted 1:10. Plates were incubated at 5% CO2, 37° C. for 40 min then removed from the incubator and fluorescence was measured using a Synergy H1 microplate reader (Excitation: 560 nm Emission: 590 nm). Values represent raw photo counts minus the value of a well with Alamar Blue reagent (1:10 in medium) but no cells.

[3] = system: U251 glioblastoma cells; test: LC3 / p62 western blotting (autophagy); type: cell-based, human
Method: (§1) Macroautophagy (hereafter “autophagy”) is a process that requires precise fusion of endosomes, autophagosomes, and lysosomes. Lysates from cells treated with Example 1 were prepared and probed by western blotting for LC3-I and LC3-II. Increased levels of LC3-II and increased p62 (sequestesome) were found showing the increased drive to undergo autophagy, in the face of inability to complete the process (i.e. ineffective autophagy). Lysosomes are the final destination of proteins destined for degradation by autophagy, and proteolysis in this organelle depends upon cathepsins among other enzymes.
FIG. 23 contains images showing induction of autophagy the Example 1 as evidenced by accumulation of LC3 over time. U251 glioblastoma cells were treated with 25, 500, or 20,000 nM MC042 for the indicated time periods, and then lysates prepared and blotted for LC3 and tubulin (loading control). Starting a t 6 hours, and becoming more evident by 24 hours, LC3-II (the lower band marked LC3) accumulated, indicating activation of autophagy.

[4] = system: RKO (colon cancer) cells; test: LC3 western blotting (autophagy); type: cell-based; conditions: 1 μM
[5] = system: U251 or RKO cells; test: Cathepsin D western blotting; type: cell-based; conditions: 18 hours
Method: as §1
U251 or RKO cells were treated with Example 1 at the indicated concentrations for 18 hours, and then analyzed by western blotting for cathepsin D and actin (loading control).
U251 or RKO cells were plated onto 10 cm tissue culture dishes and grown in the conditions described previously. When cells were growing in log phase and reached approximately 60% confluency, Example 1 was diluted into the growth media at the indicated concentrations. Cells were incubated at 5% CO2, 37° C. for 18 hr, then washed and harvested as described previously. Cells were pelleted by centrifugation at 180×g, resuspended in 20 mL of 1×PBS pH 7.4, and centrifuged again. […]

[6] = system: Glioblastoma (T98G, U251) or colorectal cancer cell lines (HT29, RKO, HCT116); test: Killing of glioblastoma and colorectal cancer cell lines by Example 3; type: cell-based
Method: Experiments were performed using DMEM-based media for the glioblastoma lines and RMPI-based media for the colorectal lines.

Row | SMILES | cell viability (ATP level) [1] | cell killing [2] | induction of LC3 ([3]; 1 μM) | p62 degradation ([3]; 25, 500, or 20,000 nM) | LC3-II level ([3]; 25, 500, or 20,000 nM, starting at 6 hours, more evident by 24 hours) | induction of LC3 [4] | mature cleaved cathepsin [5] | uncleaved precursor cathepsin D [5] | sensitivity to killing [6]
1 | Cc1ccc(Nc2nc(N/N=C/c3c[nH]c4ccccc34)nc(N3CCOCC3)n2)cc1 [Example 1, (E)-4-(2-((1H-indol-3-yl)methylene)hydrazinyl)-6-morpholino-N-(p-tolyl)-1,3,5-triazin-2-amine] | killed effectively | killing | less robust | not degraded | accumulated | dramatic and rapid induction | relative loss | accumulation | –
2 | Cc1ccc(Nc2nc(N/N=C/c3c[nH]c4ccccc34)cc(N3CCOCC3)n2)cc1 [Example 3, (E)-4-(2-((1H-indol-3-yl)methylene)hydrazinyl)-6-morpholino-N-(p-tolyl)pyrimidin-2-amine] | – | – | – | – | – | – | – | – | sensitive to killing
